In PubChem BioAssay (NCI):
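96-well plates; 48 h exposure; 5 concentrations. Endpoints by linear interpolation between flanking doses. Not reached: highest tested concentration assigned. GI50 marks 50% less growth. The concentration for full growth arrest is given as TGI.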

Columns and labels:
Assay in all cases: NCI-60 cell line screen, 48 h
[1] = tested on: COLO 205 colon
[2] = tested on: SNB-75 CNS
[3] = tested on: A549 NSCLC
[4] = tested on: SF-268 CNS
[5] = tested on: HCC-2998 colon
[6] = tested on: IGROV1 ovarian
[7] = tested on: MDA-MB-435
[8] = tested on: SR leukemia
[9] = tested on: 786-0 renal
[10] = tested on: M14 melanoma

## CN(C)N=Nc1ccc([N+](=O)[O-])cc1C(N)=O
[1]
  TGI: > 100 µM
[2]
  TGI: > 100 µM
[3]
  TGI: > 100 µM
[4]
  TGI: > 100 µM
[5]
  TGI: > 100 µM
[6]
  TGI: > 100 µM

## CCN1CCN(C(=O)[C@]23CC[C@@H](C)[C@H](C)[C@@H]2C2=CC[C@@H]4[C@@]5(C)C/C(=C/c6cccnc6)C(=O)C(C)(C)[C@@H]5CC[C@@]4(C)[C@]2(C)CC3)CC1
[1]
  GI50: 2190 nM
  TGI: 5.12 µM
[2]
  GI50: 1570 nM
  TGI: 8.91 µM
[3]
  GI50: 3150 nM
  TGI: 16.8 µM
[4]
  GI50: 1770 nM
  TGI: 4.02 µM
[7]
  GI50: 1700 nM
  TGI: 3.49 µM
[8]
  GI50: 2380 nM
  TGI: 7.09 µM
[5]
  GI50: 1550 nM
  TGI: 3 µM
[6]
  GI50: 1890 nM
  TGI: 3.87 µM

## O=c1c2ccccc2oc2c1ccc1ncccc12
[1]
  TGI: 94.4 µM
[9]
  TGI: 48.9 µM
[2]
  TGI: 95.5 µM
[3]
  TGI: 22.2 µM
[4]
  TGI: 78.2 µM
[7]
  TGI: > 100 µM
[8]
  TGI: > 100 µM
[5]
  TGI: > 100 µM
[6]
  TGI: 26.4 µM

## COc1ccc(/C=N\N2CC(=O)N3C4C=CC(CC4)N3C2=O)cc1 (configuration not stated)
[10]
  TGI: > 100 µM
[1]
  TGI: > 100 µM
[9]
  TGI: > 100 µM
[2]
  TGI: > 100 µM
[3]
  TGI: > 100 µM
[4]
  TGI: > 100 µM
[7]
  TGI: > 100 µM
[8]
  TGI: > 100 µM
[6]
  TGI: > 100 µM

## C/C(O)=C/c1nc2ccccc2nc1/C=C(/C)O
[10]
  TGI: 44.4 µM
[1]
  TGI: 47.5 µM
[9]
  TGI: 45.8 µM
[2]
  TGI: 63.3 µM
[3]
  TGI: 51.3 µM
[4]
  TGI: 64.6 µM
[7]
  TGI: 59.8 µM
[8]
  TGI: 77.5 µM
[6]
  TGI: 54.7 µM

## O=[N+]([O-])C(/C(Cl)=C(/Cl)N1CCOCC1)=C1\NCCO1
[10]
  TGI: > 100 µM
[1]
  TGI: > 100 µM
[9]
  TGI: > 100 µM
[2]
  TGI: > 100 µM
[3]
  TGI: > 100 µM
[4]
  TGI: > 100 µM
[7]
  TGI: > 100 µM
[5]
  TGI: > 100 µM

## CC(C)(C)c1cc(C(O)(C(=O)O)C(=O)O)cc(C(C)(C)C)c1O
[10]
  TGI: > 100 µM
[1]
  TGI: > 100 µM
[9]
  TGI: > 100 µM
[2]
  TGI: > 100 µM
[3]
  TGI: > 100 µM
[4]
  TGI: > 100 µM
[7]
  TGI: > 100 µM
[8]
  TGI: > 100 µM
[6]
  TGI: > 100 µM

## Cc1cc2c(cc1-c1cc3c(cc1C)C(C(C)C)=C(O)C(=O)/C3=C\Nc1nc(-c3ccccc3)cs1)/C(=C/Nc1nc(-c3ccccc3)cs1)C(=O)C(O)=C2C(C)C
[10]
  TGI: 30.1 µM
[1]
  TGI: > 100 µM
[9]
  TGI: > 100 µM
[2]
  TGI: > 100 µM
[3]
  TGI: 57.2 µM
[4]
  TGI: 72 µM
[7]
  TGI: 30.6 µM
[8]
  TGI: > 100 µM
[6]
  TGI: 53.4 µM

## CC1CN=C(Nc2cccc(C(F)(F)F)c2)S1 (configuration not stated)
[10]
  TGI: > 100 µM
[2]
  TGI: > 100 µM
[4]
  TGI: > 100 µM
[7]
  TGI: > 100 µM
[8]
  TGI: > 100 µM
[5]
  TGI: > 100 µM

## C=CCOc1ccc(C2c3c([nH][nH]c3=O)CC(O)(OCC)C2C(=O)OCC)cc1OC (configuration not stated)
[10]
  TGI: > 100 µM
[1]
  TGI: > 100 µM
[9]
  TGI: > 100 µM
[2]
  TGI: > 100 µM
[3]
  TGI: > 100 µM
[4]
  TGI: > 100 µM
[7]
  TGI: > 100 µM
[5]
  TGI: > 100 µM
[6]
  TGI: > 100 µM

## CCOC(=O)C1=CN=C2C(=O)N(c3ccccc3)N(C)C2(C)C1=N (configuration not stated)
[10]
  TGI: > 100 µM
[1]
  TGI: > 100 µM
[9]
  TGI: > 100 µM
[2]
  TGI: > 100 µM
[3]
  TGI: > 100 µM
[7]
  TGI: > 100 µM
[5]
  TGI: > 100 µM
[6]
  TGI: > 100 µM

## Cc1cc(O)c(C(C)C)cc1NC(=O)Nc1cccc2ccccc12
[10]
  TGI: 40 µM
[9]
  TGI: 34.6 µM
[3]
  TGI: 45.4 µM
[4]
  TGI: 40.9 µM
[7]
  TGI: 31.1 µM
[8]
  TGI: > 100 µM
[5]
  TGI: 41 µM
[6]
  TGI: 37.7 µM

## O=S(=O)(c1ccccc1)n1c(C(O)c2ccncc2)cc2ccccc21 (configuration not stated)
[10]
  TGI: > 100 µM
[1]
  TGI: > 100 µM
[9]
  TGI: > 100 µM
[2]
  TGI: > 100 µM
[3]
  TGI: > 100 µM
[7]
  TGI: > 100 µM
[8]
  TGI: > 100 µM
[6]
  TGI: > 100 µM

## O=C1COC(c2ccccc2O)=NN1CCCN1CCCC1
[10]
  TGI: > 100 µM
[1]
  TGI: > 100 µM
[9]
  TGI: > 100 µM
[2]
  TGI: > 100 µM
[3]
  TGI: > 100 µM
[4]
  TGI: > 100 µM
[7]
  TGI: > 100 µM
[8]
  TGI: > 100 µM
[6]
  TGI: > 100 µM

## CCSc1ncnc2c(C3OC(CO)C(O)C3O)nsc12 (configuration not stated)
[10]
  TGI: > 100 µM
[1]
  TGI: > 100 µM
[2]
  TGI: > 100 µM
[3]
  TGI: > 100 µM
[4]
  TGI: > 100 µM
[7]
  TGI: > 100 µM
[8]
  TGI: > 100 µM
[5]
  TGI: > 100 µM
[6]
  TGI: > 100 µM

## O=C(NCC1Nc2ccncc2S(=O)(=O)N1)c1ccc(Br)cc1 (configuration not stated)
[10]
  TGI: 90.8 µM
[1]
  TGI: > 100 µM
[9]
  TGI: > 100 µM
[2]
  TGI: > 100 µM
[3]
  TGI: > 100 µM
[4]
  TGI: 81.2 µM
[7]
  TGI: 37.2 µM
[5]
  TGI: > 100 µM
[6]
  TGI: > 100 µM

## CCOC(=O)c1ccc(-c2cc(C)[nH]n2)[nH]1
[10]
  TGI: > 100 µM
[1]
  TGI: > 100 µM
[9]
  TGI: > 100 µM
[2]
  TGI: > 100 µM
[3]
  TGI: > 100 µM
[4]
  TGI: > 100 µM
[7]
  TGI: > 100 µM

## CCCSc1cc(Cl)c(C)cc1S(=O)(=O)n1ccnc1OCCCN(C)C
[10]
  TGI: > 100 µM
[1]
  TGI: > 100 µM
[9]
  TGI: > 100 µM
[3]
  TGI: > 100 µM
[4]
  TGI: > 100 µM
[7]
  TGI: > 100 µM
[8]
  TGI: > 100 µM
[5]
  TGI: > 100 µM
[6]
  TGI: > 100 µM

## CN(C(=O)C12C3C4(C(=O)O)C1(C(=O)N(C)C(C)(C)C)C1C2(C(=O)O)C3(C(=O)N(C)C(C)(C)C)C14C(=O)N(C)C(C)(C)C)C(C)(C)C (configuration not stated)
[10]
  TGI: > 100 µM
[1]
  TGI: > 100 µM
[9]
  TGI: > 100 µM
[3]
  TGI: > 100 µM
[4]
  TGI: > 100 µM
[7]
  TGI: > 100 µM
[8]
  TGI: > 100 µM
[5]
  TGI: > 100 µM
[6]
  TGI: > 100 µM

## C=Nc1ccc([N+](=O)[O-])cc1
[10]
  TGI: > 100 µM
[1]
  TGI: > 100 µM
[9]
  TGI: > 100 µM
[2]
  TGI: > 100 µM
[3]
  TGI: > 100 µM
[4]
  TGI: > 100 µM
[8]
  TGI: > 80.1 µM
[5]
  TGI: > 100 µM
[6]
  TGI: > 100 µM

## C(=N\Nc1ncc(-c2cc3cc4c(cc3o2)OCO4)s1)/c1c[nH]c2ccccc12
[10]
  GI50: 3.34 µM
  TGI: 12.7 µM
[2]
  GI50: 1400 nM
  TGI: 2.89 µM
[3]
  GI50: 487 nM
  TGI: 3.1 µM
[4]
  GI50: 589 nM
  TGI: 2.86 µM
[7]
  GI50: 1740 nM
  TGI: 4.44 µM
[8]
  GI50: 912 nM
  TGI: > 100 µM
[5]
  GI50: 2060 nM
  TGI: 5.13 µM

## Nc1ccc2c(c1)C1Oc3ccccc3CC1CO2 (configuration not stated)
[10]
  TGI: > 100 µM
[1]
  TGI: > 100 µM
[9]
  TGI: > 100 µM
[3]
  TGI: > 100 µM
[4]
  TGI: > 100 µM
[7]
  TGI: > 100 µM
[8]
  TGI: > 100 µM
[5]
  TGI: > 100 µM
[6]
  TGI: > 100 µM

## Cc1cc(S(=O)(=O)Nc2nc3ccsc3c(=O)n2N)c(S)cc1Cl
[10]
  TGI: > 100 µM
[1]
  TGI: > 100 µM
[9]
  TGI: > 100 µM
[2]
  TGI: > 100 µM
[3]
  TGI: > 100 µM
[4]
  TGI: > 100 µM
[7]
  TGI: > 100 µM
[5]
  TGI: > 100 µM
[6]
  TGI: > 100 µM
